One experiment concerns Mcp-1. As to the kind of experiment: Mcp-1 gene expression in PMA treated THP-1 cells (qRT-PCR). The class given is cell-based, human. Here is the method:
(§1) THP-1 (human leukemia monocyte cell line) cells were obtained from American Type Culture Collection (ATCC, Manassas, VA). THP-1 cells (200,000/well) were placed in six-well plates. After overnight incubation in serum free RPMI medium, cells were treated with 200 ng/ml of phorbol 12-myristate 13-acetate (PMA, Sigma-Aldrich, St. Louis, MO) to induce monocyte differentiation into macrophages. […] Cells were collected and RNA was isolated using miRNeasy kit (Qiagen).
(§2) PCR primers were purchased from Integrated DNA technologies (ITD, San Diego, USA). The miRNeasy Kit was used to isolate RNA (Qiagen, Germantown, MD, USA) according to the manufacturer's instructions. The iscript c-DNA synthesis kit (Bio-Rad, Hercules, CA, USA) was used to synthesize cDNA, and real-time qRT-PCR was done with the iTaq universal SYBR green super mix (Bio-Rad) using a C1000 thermal cycler with CFX96 real-time system (Bio-Rad). TBP-1 was used as a reference gene, and gene expression data was normalized to the respective control veins. The 2^−ΔΔct method was used to measure the fold change in gene expression.
Background: In qPCR the cycle at which signal appears reflects the starting amount.

A further experiment has as its system THP-1 cells. As to the kind of experiment: CCR2, FABP4, IL8 and PPARγ gene expression in PMA treated THP-1 cells (qRT-PCR). The following applies: 200 ng/ml PMA, 300 μM BN or BN NP, 24 hours. The class given is cell-based, human. How it is done:
as §1, §2

The structures appear in SMILES notation. Entries after “also recorded” stand apart in the source; their conditions may differ.

For the molecule `CCCCCCCCCCCCCC(=O)O[C@@H]1[C@@H](C)[C@@]2(O)[C@@H](C=C(CO)C[C@]3(O)C(=O)C(C)=C[C@@H]23)[C@@H]2C(C)(C)[C@]12OC(C)=O` [PMA, phorbol 12-myristate 13-acetate], the “average Mcp-1 gene expression” value with Mcp-1 (200 ng/ml PMA with or without 300 μM BN or BN NP, 24 hours, fold change) is 9.77±1.58. The “average increase of Mcp-1 gene expression” value in the experiment on Mcp-1 (PMA compared to NP C alone) is on record as 859.13%. Also, in the experiment with THP-1 cells, the CCR2 gene expression result is recorded as “significantly increased; also recorded: induced”, the FABP4 gene expression result is listed as “significantly increased; also recorded: induced”, the IL8 gene expression result is given as “significantly increased; also recorded: induced” and the PPARγ gene expression entry is recorded as “significantly increased; also recorded: induced”.
